Results reported in ChEMBL document CHEMBL4368904 (J Med Chem, 2019).
The source made the active and inactive calls. No cut-off for these calls is given here.

Experiments:
[1] = system: HepG2; assay: Cytotoxicity against human HepG2 cells; assay type: cell-based
[2] = system: Mus musculus; assay: Induction of hypothermia in A1AR/A3AR knock out C57BL/6J mouse assessed as effect on body temperature at 3 mg/kg, ip measured at 60 mins post dose; assay type: functional, organism-based
[3] = Fraction unbound in rat plasma at 10 uM; assay type: ADME, cell-free
[4] = Stability in mouse plasma; assay type: ADME, cell-free
[5] = Oral bioavailability in Sprague-Dawley rat at 1 to 10 mg/kg; assay type: ADME, organism-based; details: in vivo
[6] = system: Mus musculus; assay: Induction of hypothermia in A1AR knock out C57BL/6J mouse assessed as effect on body temperature at 3 mg/kg, ip measured at 60 mins post dose; assay type: functional, organism-based
[7] = system: Mus musculus; assay: Induction of hypothermia in C57BL/6J mouse assessed as activity counts at 3 mg/kg, ip measured at 60 mins post dose (reference value: 15.5 +/- 5.5); assay type: functional
[8] = system: Mus musculus; assay: Induction of hypothermia in C57BL/6J mouse assessed as body temperature at […], icv measured after 10 hrs post dose; assay type: functional, organism-based
[9] = biological target: T1, Adenosine receptor A1 (Homo sapiens, UniProt P30542); assay: Agonist activity at human A1A adenosine receptor expressed in CHOKI cells assessed as induction of beta-arrestin2 recruitment after 60 mins; assay type: cell-based
T1 sequence (P30542 whole entry): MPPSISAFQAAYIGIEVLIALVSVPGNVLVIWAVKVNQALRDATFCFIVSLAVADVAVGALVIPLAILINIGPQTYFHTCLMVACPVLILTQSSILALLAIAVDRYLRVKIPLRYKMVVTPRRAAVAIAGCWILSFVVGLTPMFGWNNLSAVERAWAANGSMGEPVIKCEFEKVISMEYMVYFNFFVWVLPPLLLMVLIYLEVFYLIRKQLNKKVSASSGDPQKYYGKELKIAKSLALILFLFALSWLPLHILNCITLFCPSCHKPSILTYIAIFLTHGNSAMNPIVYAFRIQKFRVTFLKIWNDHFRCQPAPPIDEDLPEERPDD

[10] = Stability of the compound in simulated gastric fluid; assay type: ADME; details: simulated gi fluid
[11] = Cmax in Sprague-Dawley rat at 3 mg/kg, po; assay type: ADME, organism-based; design: dose 3 mg/kg, route oral; details: in vivo
[12] = biological target: T2, Adenosine receptor A3 (Mus musculus) (UniProt Q61618); assay: Agonist activity at mouse A3AR adenosine receptor at 10 uM after 60 mins by [35S]GTPgammaS binding assay relative to (2S,3S,4R,5R)-5-(6-amino-9H-purin-9-yl)-N-ethyl-3,4-dihydroxytetrahydrofuran-2-carboxamide; assay type: functional
T2 sequence (whole entry): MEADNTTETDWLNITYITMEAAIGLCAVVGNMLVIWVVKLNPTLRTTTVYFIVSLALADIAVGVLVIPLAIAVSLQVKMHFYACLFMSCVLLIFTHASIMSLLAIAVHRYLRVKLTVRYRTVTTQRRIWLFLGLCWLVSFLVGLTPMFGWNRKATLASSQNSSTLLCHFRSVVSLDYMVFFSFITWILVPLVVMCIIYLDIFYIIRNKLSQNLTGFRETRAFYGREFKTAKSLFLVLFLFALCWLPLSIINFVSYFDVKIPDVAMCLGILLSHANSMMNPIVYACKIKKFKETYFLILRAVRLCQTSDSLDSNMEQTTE

[13] = Half life in Sprague-Dawley rat at 1 to 10 mg/kg, po; assay type: ADME, organism-based; details: in vivo
[14] = biological target: Cytochrome P450 2C19 (Homo sapiens, UniProt P33261); assay: Inhibition of human CYP2C19; assay type: ADME
[15] = biological target: Voltage-gated inwardly rectifying potassium channel KCNH2 (Homo sapiens, UniProt Q12809); assay: Inhibition of human ERG by fluorescence polarization assay
[16] = system: Mus musculus; assay: Induction of hypothermia in C57BL/6J mouse assessed as body temperature at 3 mg/kg, ip measured at 60 mins post dose (reference value: 36.3 +/- 0.8 degC); assay type: functional
[17] = biological target: T1, Adenosine receptor A1; assay: Agonist activity at human A1A adenosine receptor expressed in HEK cells assessed as inhibition of forskolin-stimulated cAMP production after 60 mins; assay type: functional, cell-based
[18] = Stability in rat plasma; assay type: ADME, cell-free
[19] = Stability of the compound in simulated intestinal fluid; assay type: ADME; details: simulated gi fluid
[20] = biological target: T1, Adenosine receptor A1; assay: Agonist activity at human A1A adenosine receptor expressed in HEK cell membranes incubated for 60 mins by [35S]GTPgammaS binding assay; assay type: functional
[21] = system: Mus musculus; assay: Induction of hypothermia in A3AR knock out C57BL/6J mouse assessed as effect on body temperature at 3 mg/kg, ip measured at 60 mins post dose; assay type: functional, organism-based
[22] = Fraction unbound in human plasma at 10 uM; assay type: ADME, cell-free
[23] = Fraction unbound in mouse plasma at 10 uM; assay type: ADME, cell-free
[24] = Stability in human plasma; assay type: ADME, cell-free
[25] = biological target: Cytochrome P450 1A2 (Homo sapiens, UniProt P05177); assay: Inhibition of human CYP1A2; assay type: ADME
Chain of Cytochrome P450 1A2 (P05177 whole entry): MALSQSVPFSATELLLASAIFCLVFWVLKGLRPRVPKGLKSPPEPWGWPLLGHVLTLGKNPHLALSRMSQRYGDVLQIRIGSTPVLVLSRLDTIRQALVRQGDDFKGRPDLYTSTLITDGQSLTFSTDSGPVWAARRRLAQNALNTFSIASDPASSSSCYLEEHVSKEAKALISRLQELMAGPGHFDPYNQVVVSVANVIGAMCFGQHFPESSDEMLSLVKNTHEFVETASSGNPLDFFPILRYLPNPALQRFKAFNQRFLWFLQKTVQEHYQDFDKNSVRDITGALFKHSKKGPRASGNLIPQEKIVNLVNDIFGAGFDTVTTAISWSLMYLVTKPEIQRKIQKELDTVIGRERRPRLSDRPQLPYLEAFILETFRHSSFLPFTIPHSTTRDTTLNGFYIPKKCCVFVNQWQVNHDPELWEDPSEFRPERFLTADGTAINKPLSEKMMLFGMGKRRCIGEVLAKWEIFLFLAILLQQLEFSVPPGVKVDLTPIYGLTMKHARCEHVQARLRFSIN

Chain of Cytochrome P450 2C19 (P33261 whole entry): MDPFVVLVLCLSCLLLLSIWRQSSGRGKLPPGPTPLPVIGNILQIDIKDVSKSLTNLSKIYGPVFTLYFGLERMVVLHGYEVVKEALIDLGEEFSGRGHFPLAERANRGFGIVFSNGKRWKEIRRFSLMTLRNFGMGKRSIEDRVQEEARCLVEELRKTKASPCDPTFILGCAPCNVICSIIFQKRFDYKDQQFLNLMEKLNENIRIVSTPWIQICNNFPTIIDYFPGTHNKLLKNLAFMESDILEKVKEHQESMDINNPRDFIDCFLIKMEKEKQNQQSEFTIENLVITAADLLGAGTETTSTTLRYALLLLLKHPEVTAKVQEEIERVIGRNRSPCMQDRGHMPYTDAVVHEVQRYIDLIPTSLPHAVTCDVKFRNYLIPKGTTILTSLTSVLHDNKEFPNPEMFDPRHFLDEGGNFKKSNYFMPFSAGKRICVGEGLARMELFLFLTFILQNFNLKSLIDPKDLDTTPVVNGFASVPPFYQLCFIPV
Chain of Voltage-gated inwardly rectifying potassium channel KCNH2 (Q12809 whole entry): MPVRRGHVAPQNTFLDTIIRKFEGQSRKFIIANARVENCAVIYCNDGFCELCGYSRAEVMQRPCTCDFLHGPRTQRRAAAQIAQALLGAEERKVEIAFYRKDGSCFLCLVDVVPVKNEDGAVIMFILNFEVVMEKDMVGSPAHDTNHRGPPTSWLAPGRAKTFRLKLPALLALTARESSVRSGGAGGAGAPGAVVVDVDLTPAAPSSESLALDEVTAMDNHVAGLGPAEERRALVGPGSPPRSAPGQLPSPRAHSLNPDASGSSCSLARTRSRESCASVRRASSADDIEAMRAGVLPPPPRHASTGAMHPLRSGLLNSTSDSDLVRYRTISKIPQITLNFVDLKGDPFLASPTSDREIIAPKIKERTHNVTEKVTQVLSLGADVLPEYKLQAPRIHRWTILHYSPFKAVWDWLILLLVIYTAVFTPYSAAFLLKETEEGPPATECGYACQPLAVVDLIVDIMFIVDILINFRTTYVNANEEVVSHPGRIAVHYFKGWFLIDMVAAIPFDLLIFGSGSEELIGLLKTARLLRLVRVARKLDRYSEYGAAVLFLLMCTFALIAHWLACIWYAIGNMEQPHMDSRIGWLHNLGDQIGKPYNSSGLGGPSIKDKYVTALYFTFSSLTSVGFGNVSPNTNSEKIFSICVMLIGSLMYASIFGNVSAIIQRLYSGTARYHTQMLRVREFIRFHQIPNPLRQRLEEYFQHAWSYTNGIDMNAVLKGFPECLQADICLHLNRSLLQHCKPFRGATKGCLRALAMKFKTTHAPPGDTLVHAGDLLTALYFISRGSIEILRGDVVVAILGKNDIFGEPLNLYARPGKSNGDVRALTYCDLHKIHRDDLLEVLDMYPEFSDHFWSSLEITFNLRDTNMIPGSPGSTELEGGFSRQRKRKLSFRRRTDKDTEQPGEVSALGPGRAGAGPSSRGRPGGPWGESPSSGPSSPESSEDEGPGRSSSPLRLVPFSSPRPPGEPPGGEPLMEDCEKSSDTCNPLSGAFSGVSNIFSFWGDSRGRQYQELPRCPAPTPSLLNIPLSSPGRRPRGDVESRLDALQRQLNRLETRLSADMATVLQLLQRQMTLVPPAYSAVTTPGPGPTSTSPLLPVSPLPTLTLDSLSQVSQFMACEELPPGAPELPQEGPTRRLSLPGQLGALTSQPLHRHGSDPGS

OC[C@H]1O[C@@H](n2cnc3c(NC(C4CCC4)C4CCC4)ncnc32)[C@H](O)[C@@H]1O
Activity [1]: Non-Toxic
Activity [2]: inactive
Fu [3]: 14.6%
Stability [4]: Stable
bioavailability [5]: 31 to 43%
Activity [6]: inactive
Activity [7]: 6.6
Activity [8]: Active
EC50 [9]: 209 nM
Stability [10]: Stable
Cmax [11]: 121 ng/mL
Emax [12]: 70%
half-life [13]: 0.9 to 1.3 h
inhibition (INH) [14]: Not Active
IC50 [15]: > 30000 nM
T [16]: 33 °C
IC50 [17]: 0.14 nM
Stability [18]: Stable
Stability [19]: Stable
EC50 [20]: 28 nM
Activity [21]: Active
Fu [22]: 6.05%
Fu [23]: 20.6%
Stability [24]: Stable
inhibition (INH) [25]: Not Active
